In article PMC5992482 (Molecular Therapy. Nucleic Acids, 2018):

Target: T1, Nicotinamide N-methyltransferase (NNMT) (Homo sapiens, UniProt P40261)
T1 sequence (P40261 1-264): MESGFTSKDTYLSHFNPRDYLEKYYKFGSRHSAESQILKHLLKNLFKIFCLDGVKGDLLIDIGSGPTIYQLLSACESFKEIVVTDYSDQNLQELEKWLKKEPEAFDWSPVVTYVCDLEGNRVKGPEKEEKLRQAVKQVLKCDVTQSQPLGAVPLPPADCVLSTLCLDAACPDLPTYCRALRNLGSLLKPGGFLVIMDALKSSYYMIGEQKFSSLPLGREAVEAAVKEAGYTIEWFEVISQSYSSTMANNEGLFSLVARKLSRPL
Experiment: in vitro enzyme activity assay with purified NNMT
Format: biochemical

C=C(C)[C@@]12O[C@@]3(/C=C/C=C/CCCCC)O[C@@H]1[C@@H]1[C@@H]4O[C@]4(CO)[C@@H](O)[C@]4(O)C(=O)C(C)=C[C@H]4[C@@]1(O3)[C@H](C)[C@H]2OC(C)=O [YD, yuanhuadine]
IC50: 400 nM
